According to US7084141B2, “Inhibitors of macrophase migration inhibitory factor and methods for identifying the same” (Avanir Pharmaceuticals, priority 2001, dated 2006):

Target: T1, MIF produced by THP-1 cells (Homo sapiens, UniProt P14174)
T1 construct: a test cell may express the MIF naturally (e.g., THP-1 cells); endogenous in cells; host or cells: THP-1 cells stimulated with LPS
T1 sequence (P14174 2-115 limits assumed): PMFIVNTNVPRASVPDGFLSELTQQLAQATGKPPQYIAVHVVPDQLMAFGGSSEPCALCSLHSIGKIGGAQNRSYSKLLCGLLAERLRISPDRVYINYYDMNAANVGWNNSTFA
Assay: High throughput screening ELISA for MIF inhibitors (THP-1 supernatant / pre-conditioned media incubated with inhibitor)
Format: binding
Conditions: absence of cells, 30 minutes at 37° C.
Experimental: Alternatively, ELISA may be preferred to detect and quantify the amount of MIF in cell supernatants. ELISA is preferred for detection in high throughput screening. Briefly, 96-well plates are coated with an anti-MIF antibody or anti-tag antibody, washed, and blocked with 2% BSA. Cell supernatant is then added to the wells. Following incubation and washing, a second antibody (e.g., to MIF) is added. The second antibody may be coupled to a label or detecting reagent, such as an enzyme or to biotin. Following further incubation, a developing reagent is added and the amount of MIF determined using an ELISA plate reader. […]
In the previous experiment (FIG. 3), the ability of compound 7e to modulate antibody binding to MIF protein was analyzed in the presence of LPS-stimulated THP1 cells. […] Six hours later, the conditioned media was removed, clarified of cell debris and the amount of MIF determined to be 22 ng/ml. […] The level of detectable MIF was then determined by ELISA using the monoclonal anti-MIF antibody for detection. […]
The high throughput screening assay for MIF inhibitors is performed in a 96-well format using MIF produced by THP-1 cells and is performed as follows. […] The amount of MIF is calculated by interpolation from an MIF standard curve.

SMILES: Cn1c(=O)c([N+](=O)[O-])c(N2CCN(C(=O)c3ccco3)CC2)c2ccccc21 [compound 7e]
- MIF specific ELISA signal in pre-conditioned media: rapid loss of MIF specific ELISA signal
